Data on three compounds can be found in patent publication US4540682A, “Pharmaceutical peptides, preparation, use and intermediates” (Burroughs Wellcome Co., priority 1983, dated 1985).

In one assay the test system is Male mice (CFLP strain). Description: Hotplate test. The format is in vivo. Particulars: subcutaneous; test repeated 15 mins. after treatment; as free peptide where appropriate; NE = no effect. The source says:
(§1) (1) Both the hotplate test (Woolfe and MacDonald, J. Pharmacol. Exp. Ther. 80: 300, 1944) and the irritant-induced writhing (stretch) test (Vander Wende and Margolin, Fed. Proc. 15: 494, 1956) are standard in the art for the investigation of analgesic activity. Whereas it is believed that the pain in the latter can be ameliorated either centrally or peripherally, it is thought that that induced in the hotplate test is affected only at the central level.
Male mice (CFLP strain, Hacking and Churchill) were individually placed in a copper-bottomed perspex box suspended in a water bath at 55° C. and observed for signs of discomfort such as shaking or licking the paws, the reaction time (up to a maximum of 30 secs.) being recorded. Groups of five animals then received either a test compound or saline vehicle (0.85%) control by subcutaneous injection, the test being repeated at 15 mins. after treatment. The ED50 figures for the test compounds were calculated from the number of animals having a posttreatment reaction time which was twice the pretreatment figure.

A further assay concerns female CD1 mice. In words: Irritant-induced writhing test, phenylbenzoquinone (PBQ). The format is in vivo. Particulars: Mus musculus, po, 0.5 h; p.o.; *test compound administered 30 min. prior to PBQ; read-out: (B) Writhing PBQ ED50 p.o.
Description: as §1
(ii) Phenylbenzoquinone (PBQ). This test was carried out in a parallel manner to that employing acetic acid, except that the period over which the writhing/stretching movements were counted began 10 mins. after administration of the PBQ irritant, the latter being given at a dosage of 2.5 mg/kg and in a dose volume of 10 ml/kg. The ED50 figures for the test compounds were calculated, using linear regression analysis, as the dose in the presence of which only half the number of writhes/stretches was induced compared with the controls.

In the case of `COc1ccc2c(c1)c(CC(=O)O)c(C)n2C(=O)c1ccc(Cl)cc1` [Indomethacin], the “(A) Hotplate ED50” value in the assay with Male mice (CFLP strain) is recorded as “NE @ 100”.
The ED50 is the midpoint of the dose-response relation. `CN1CC[C@]23c4c5ccc(O)c4O[C@H]2[C@@H](O)C=C[C@H]3[C@H]1C5` [Morphine]: in the assay with female CD1 mice, the median effective dose (ED50) was 3.5 mg/kg.
For the compound `CC(C)=CCN1CCC2(C)c3cc(O)ccc3CC1C2C` (stereo not drawn) [Pentazocine], the “(A) Hotplate ED50” value in the assay on Male mice (CFLP strain) is on record as “NE @ 100”.
